Laboratory results reported in ChEMBL document CHEMBL4507261, “Data for DCP probe A-192621” (2021).

Experiments:
[1] = biological target: Serine/threonine-protein kinase B-raf (Homo sapiens) (UniProt P15056); conditions: Compound concentration 1000.0 nM
[2] = biological target: Tyrosine-protein kinase ABL2 (Homo sapiens) (UniProt P42684); conditions: Compound concentration 1000.0 nM
[3] = biological target: Serine/threonine-protein kinase Nek1 (Homo sapiens) (UniProt Q96PY6); conditions: Compound concentration 1000.0 nM
[4] = biological target: Mitogen-activated protein kinase 13 (Homo sapiens) (UniProt O15264); conditions: Compound concentration 1000.0 nM
[5] = biological target: MAP/microtubule affinity-regulating kinase 3 (Homo sapiens) (UniProt P27448); conditions: Compound concentration 1000.0 nM
[6] = biological target: Serine/threonine-protein kinase NIM1 (Homo sapiens) (UniProt Q8IY84); conditions: Compound concentration 1000.0 nM
[7] = biological target: Receptor-interacting serine/threonine-protein kinase 2 (Homo sapiens) (UniProt O43353); conditions: Compound concentration 1000.0 nM
[8] = biological target: Mitogen-activated protein kinase kinase kinase 11 (Homo sapiens) (UniProt Q16584); conditions: Compound concentration 1000.0 nM
[9] = system: Epidermal growth factor receptor (Homo sapiens), P00533 [T790M]; conditions: Compound concentration 1000.0 nM
[10] = biological target: Macrophage colony-stimulating factor 1 receptor (Homo sapiens) (UniProt P07333); conditions: Compound concentration 1000.0 nM
[11] = biological target: Receptor-interacting serine/threonine-protein kinase 4 (Homo sapiens) (UniProt P57078); conditions: Compound concentration 1000.0 nM
[12] = biological target: Ephrin type-A receptor 5 (Homo sapiens) (UniProt P54756); conditions: Compound concentration 1000.0 nM
[13] = biological target: Inhibitor of nuclear factor kappa-B kinase subunit beta (Homo sapiens) (UniProt O14920); conditions: Compound concentration 1000.0 nM
[14] = biological target: Endothelin receptor type B (Homo sapiens) (UniProt P24530); assay: ETB (h) Eurofins-Cerep binding assay; conditions: filed as agonist, Compound concentration 10.0 uM
[15] = biological target: Serine/threonine-protein kinase BRSK2 (Homo sapiens) (UniProt Q8IWQ3); conditions: Compound concentration 1000.0 nM
[16] = biological target: Dual specificity testis-specific protein kinase 1 (Homo sapiens) (UniProt Q15569); conditions: Compound concentration 1000.0 nM
[17] = system: Phosphatidylinositol 4,5-bisphosphate 3-kinase catalytic subunit alpha isoform (Homo sapiens), P42336 [E545K]; conditions: Compound concentration 1000.0 nM
[18] = biological target: Mast/stem cell growth factor receptor Kit (Homo sapiens) (UniProt P10721); conditions: Compound concentration 1000.0 nM
[19] = biological target: Phosphatidylinositol 4-phosphate 5-kinase type-1 alpha (Homo sapiens) (UniProt Q99755); conditions: Compound concentration 1000.0 nM
[20] = biological target: Mitogen-activated protein kinase kinase kinase kinase 2 (Homo sapiens) (UniProt Q12851); conditions: Compound concentration 1000.0 nM
[21] = biological target: AP2-associated protein kinase 1 (Homo sapiens) (UniProt Q2M2I8); conditions: Compound concentration 1000.0 nM
[22] = biological target: Serine/threonine-protein kinase Nek10 (Homo sapiens) (UniProt Q6ZWH5); conditions: Compound concentration 1000.0 nM
[23] = biological target: Serine/threonine-protein kinase TBK1 (Homo sapiens) (UniProt Q9UHD2); conditions: Compound concentration 1000.0 nM
[24] = biological target: Ephrin type-A receptor 7 (Homo sapiens) (UniProt Q15375); conditions: Compound concentration 1000.0 nM
[25] = biological target: Serine/threonine-protein kinase PAK 1 (Homo sapiens) (UniProt Q13153); conditions: Compound concentration 1000.0 nM
[26] = biological target: MAP kinase-interacting serine/threonine-protein kinase 1 (Homo sapiens) (UniProt Q9BUB5); conditions: Compound concentration 1000.0 nM
[27] = biological target: Calcium/calmodulin-dependent protein kinase type 1B (Homo sapiens) (UniProt Q6P2M8); conditions: Compound concentration 1000.0 nM
[28] = biological target: Tyrosine-protein kinase Lck (Homo sapiens) (UniProt P06239); conditions: Compound concentration 1000.0 nM
[29] = system: Tyrosine-protein kinase ABL1 (Homo sapiens), P00519 [F317I]; conditions: Compound concentration 1000.0 nM
[30] = biological target: 5-hydroxytryptamine receptor 4 (Homo sapiens) (UniProt Q13639); assay: 5-HT4 e (h) Eurofins-Cerep binding assay; parameters: ligand concentration 0.3 nM; conditions: filed as antagonist, Compound concentration 10.0 uM
[31] = biological target: Serine/threonine-protein kinase 25 (Homo sapiens) (UniProt O00506); conditions: Compound concentration 1000.0 nM
[32] = biological target: Serine/threonine-protein kinase PAK 6 (Homo sapiens) (UniProt Q9NQU5); conditions: Compound concentration 1000.0 nM
[33] = biological target: MAP/microtubule affinity-regulating kinase 4 (Homo sapiens) (UniProt Q96L34); conditions: Compound concentration 1000.0 nM
[34] = biological target: MAP kinase-interacting serine/threonine-protein kinase 2 (Homo sapiens) (UniProt Q9HBH9); conditions: Compound concentration 1000.0 nM
[35] = biological target: Cannabinoid receptor 1 (Homo sapiens) (UniProt P21554); assay: CB1 (h) Eurofins-Cerep binding assay; parameters: ligand concentration 0.5 nM; conditions: filed as agonist, Compound concentration 10.0 uM
[36] = biological target: Serine/threonine-protein kinase PRP4 homolog (Homo sapiens) (UniProt Q13523); conditions: Compound concentration 1000.0 nM
[37] = biological target: Protein kinase C iota type (Homo sapiens) (UniProt P41743); conditions: Compound concentration 1000.0 nM
[38] = system: Proto-oncogene tyrosine-protein kinase receptor Ret (Homo sapiens), P07949 [V804M]; conditions: Compound concentration 1000.0 nM
[39] = biological target: Muscle, skeletal receptor tyrosine-protein kinase (Homo sapiens) (UniProt O15146); conditions: Compound concentration 1000.0 nM
[40] = biological target: Serine/threonine-protein kinase 35 (Homo sapiens) (UniProt Q8TDR2); conditions: Compound concentration 1000.0 nM
[41] = biological target: Phosphorylase b kinase gamma catalytic chain, skeletal muscle/heart isoform (Homo sapiens) (UniProt Q16816); conditions: Compound concentration 1000.0 nM
[42] = biological target: Homeodomain-interacting protein kinase 4 (Homo sapiens) (UniProt Q8NE63); conditions: Compound concentration 1000.0 nM
[43] = biological target: Phosphorylase b kinase regulatory subunit alpha, liver isoform (Homo sapiens) (UniProt P46019); conditions: Compound concentration 1000.0 nM
[44] = biological target: Ribosomal protein S6 kinase alpha-2 (Homo sapiens) (UniProt Q15349); conditions: Compound concentration 1000.0 nM
Chain of Ribosomal protein S6 kinase alpha-2 (Homo sapiens) (Q15349 whole entry): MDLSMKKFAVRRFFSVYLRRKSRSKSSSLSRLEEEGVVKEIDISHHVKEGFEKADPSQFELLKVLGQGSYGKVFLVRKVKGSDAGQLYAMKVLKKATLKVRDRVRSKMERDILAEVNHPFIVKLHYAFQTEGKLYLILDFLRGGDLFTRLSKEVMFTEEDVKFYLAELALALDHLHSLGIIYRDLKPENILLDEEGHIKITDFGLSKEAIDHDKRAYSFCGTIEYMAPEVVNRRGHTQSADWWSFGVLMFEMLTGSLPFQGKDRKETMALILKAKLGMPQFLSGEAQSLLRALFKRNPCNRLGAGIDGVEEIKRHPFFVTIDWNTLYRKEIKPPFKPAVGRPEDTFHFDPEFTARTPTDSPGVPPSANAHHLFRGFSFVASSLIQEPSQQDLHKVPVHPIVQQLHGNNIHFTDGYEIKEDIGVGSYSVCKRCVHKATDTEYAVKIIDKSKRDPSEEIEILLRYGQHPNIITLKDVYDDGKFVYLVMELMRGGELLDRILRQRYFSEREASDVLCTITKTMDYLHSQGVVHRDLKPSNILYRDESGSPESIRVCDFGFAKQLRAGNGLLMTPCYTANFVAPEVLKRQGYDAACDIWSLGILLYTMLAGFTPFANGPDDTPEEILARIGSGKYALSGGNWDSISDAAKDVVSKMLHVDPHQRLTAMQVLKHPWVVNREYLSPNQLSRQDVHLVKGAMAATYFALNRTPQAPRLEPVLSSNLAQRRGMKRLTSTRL

Chain of Proto-oncogene tyrosine-protein kinase receptor Ret (Homo sapiens), P07949 [V804M] (P07949 whole entry V804M): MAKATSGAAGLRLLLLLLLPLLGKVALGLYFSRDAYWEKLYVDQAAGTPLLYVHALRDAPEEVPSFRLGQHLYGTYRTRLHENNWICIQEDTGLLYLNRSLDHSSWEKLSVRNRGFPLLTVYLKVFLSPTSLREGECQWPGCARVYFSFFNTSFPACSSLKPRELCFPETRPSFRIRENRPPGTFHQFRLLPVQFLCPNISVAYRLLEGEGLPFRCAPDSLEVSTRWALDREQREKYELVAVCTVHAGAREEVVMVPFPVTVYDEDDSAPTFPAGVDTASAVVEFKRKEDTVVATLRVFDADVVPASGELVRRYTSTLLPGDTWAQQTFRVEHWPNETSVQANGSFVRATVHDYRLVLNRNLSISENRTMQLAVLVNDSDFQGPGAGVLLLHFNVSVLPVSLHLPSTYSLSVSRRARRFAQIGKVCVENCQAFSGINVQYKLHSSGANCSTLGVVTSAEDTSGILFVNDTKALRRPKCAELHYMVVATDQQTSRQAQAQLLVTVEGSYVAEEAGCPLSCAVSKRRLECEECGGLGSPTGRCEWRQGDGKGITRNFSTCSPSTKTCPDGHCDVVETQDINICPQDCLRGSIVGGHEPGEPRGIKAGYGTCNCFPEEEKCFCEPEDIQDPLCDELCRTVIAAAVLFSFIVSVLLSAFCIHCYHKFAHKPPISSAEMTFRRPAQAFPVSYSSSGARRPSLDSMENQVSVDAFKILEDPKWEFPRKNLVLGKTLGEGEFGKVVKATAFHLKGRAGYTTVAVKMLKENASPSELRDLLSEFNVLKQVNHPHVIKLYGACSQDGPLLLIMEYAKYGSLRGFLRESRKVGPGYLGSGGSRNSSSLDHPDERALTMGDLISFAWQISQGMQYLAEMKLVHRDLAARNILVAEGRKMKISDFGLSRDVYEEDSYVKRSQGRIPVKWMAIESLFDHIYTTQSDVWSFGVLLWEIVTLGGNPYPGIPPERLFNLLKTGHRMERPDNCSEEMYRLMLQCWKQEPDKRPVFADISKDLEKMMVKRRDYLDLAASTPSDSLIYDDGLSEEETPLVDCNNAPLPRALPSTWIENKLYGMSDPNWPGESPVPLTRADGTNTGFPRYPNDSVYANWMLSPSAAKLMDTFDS
Chain of Phosphorylase b kinase gamma catalytic chain, skeletal muscle/heart isoform (Homo sapiens) (Q16816 whole entry, looked up, canonical isoform): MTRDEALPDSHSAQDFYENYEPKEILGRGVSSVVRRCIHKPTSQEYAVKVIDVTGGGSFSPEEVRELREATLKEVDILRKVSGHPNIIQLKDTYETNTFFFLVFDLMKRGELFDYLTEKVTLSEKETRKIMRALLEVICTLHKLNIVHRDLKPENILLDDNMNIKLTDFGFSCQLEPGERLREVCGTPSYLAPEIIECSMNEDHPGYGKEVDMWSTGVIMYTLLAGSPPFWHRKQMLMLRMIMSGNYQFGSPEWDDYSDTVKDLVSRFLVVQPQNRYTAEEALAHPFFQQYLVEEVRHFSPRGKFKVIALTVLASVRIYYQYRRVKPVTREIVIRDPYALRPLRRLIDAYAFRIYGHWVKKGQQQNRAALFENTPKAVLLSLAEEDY
Chain of Protein kinase C iota type (Homo sapiens) (P41743 whole entry): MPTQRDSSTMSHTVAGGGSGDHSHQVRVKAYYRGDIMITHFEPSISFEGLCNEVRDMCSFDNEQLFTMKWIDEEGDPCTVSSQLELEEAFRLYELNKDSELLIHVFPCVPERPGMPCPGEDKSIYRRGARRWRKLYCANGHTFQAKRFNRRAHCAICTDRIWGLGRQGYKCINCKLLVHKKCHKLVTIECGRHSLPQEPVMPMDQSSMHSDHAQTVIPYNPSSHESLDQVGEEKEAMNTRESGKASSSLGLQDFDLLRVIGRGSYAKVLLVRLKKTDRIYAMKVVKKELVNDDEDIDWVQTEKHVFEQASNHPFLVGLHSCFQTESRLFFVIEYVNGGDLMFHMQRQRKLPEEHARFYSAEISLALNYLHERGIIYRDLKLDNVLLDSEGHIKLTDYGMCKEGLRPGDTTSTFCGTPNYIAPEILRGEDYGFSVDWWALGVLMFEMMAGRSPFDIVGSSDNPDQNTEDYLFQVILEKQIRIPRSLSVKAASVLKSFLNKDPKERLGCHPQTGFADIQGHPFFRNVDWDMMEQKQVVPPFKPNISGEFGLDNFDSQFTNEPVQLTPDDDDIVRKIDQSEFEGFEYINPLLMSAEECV
Chain of Serine/threonine-protein kinase PRP4 homolog (Homo sapiens) (Q13523 whole entry): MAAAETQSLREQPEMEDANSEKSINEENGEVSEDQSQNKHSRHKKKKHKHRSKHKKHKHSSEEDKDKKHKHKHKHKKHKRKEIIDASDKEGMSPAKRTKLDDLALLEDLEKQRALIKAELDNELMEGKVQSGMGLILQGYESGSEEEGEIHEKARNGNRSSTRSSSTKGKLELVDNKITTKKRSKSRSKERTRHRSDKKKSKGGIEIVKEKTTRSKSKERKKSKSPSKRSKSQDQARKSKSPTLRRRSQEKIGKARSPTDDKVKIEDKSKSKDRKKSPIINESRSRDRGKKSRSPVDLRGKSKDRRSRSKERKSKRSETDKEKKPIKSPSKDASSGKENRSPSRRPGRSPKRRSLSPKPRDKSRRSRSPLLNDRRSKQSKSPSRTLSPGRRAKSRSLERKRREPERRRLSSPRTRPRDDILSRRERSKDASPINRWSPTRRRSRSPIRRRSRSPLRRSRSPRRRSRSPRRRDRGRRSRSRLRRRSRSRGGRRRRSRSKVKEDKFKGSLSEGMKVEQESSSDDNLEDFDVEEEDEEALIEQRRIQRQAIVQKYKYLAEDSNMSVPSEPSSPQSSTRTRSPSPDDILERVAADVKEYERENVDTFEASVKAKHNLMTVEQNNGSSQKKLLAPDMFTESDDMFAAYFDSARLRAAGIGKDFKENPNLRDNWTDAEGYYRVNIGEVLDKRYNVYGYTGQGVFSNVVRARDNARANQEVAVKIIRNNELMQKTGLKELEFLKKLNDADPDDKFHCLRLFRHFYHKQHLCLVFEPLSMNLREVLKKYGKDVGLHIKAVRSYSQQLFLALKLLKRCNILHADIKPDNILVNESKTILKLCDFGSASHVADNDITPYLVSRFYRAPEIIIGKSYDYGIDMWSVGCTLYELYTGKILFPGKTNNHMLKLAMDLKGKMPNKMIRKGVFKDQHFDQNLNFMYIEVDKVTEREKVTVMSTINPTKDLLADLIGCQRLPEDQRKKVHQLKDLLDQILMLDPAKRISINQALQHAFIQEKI
Chain of 5-hydroxytryptamine receptor 4 (Homo sapiens) (Q13639 whole entry): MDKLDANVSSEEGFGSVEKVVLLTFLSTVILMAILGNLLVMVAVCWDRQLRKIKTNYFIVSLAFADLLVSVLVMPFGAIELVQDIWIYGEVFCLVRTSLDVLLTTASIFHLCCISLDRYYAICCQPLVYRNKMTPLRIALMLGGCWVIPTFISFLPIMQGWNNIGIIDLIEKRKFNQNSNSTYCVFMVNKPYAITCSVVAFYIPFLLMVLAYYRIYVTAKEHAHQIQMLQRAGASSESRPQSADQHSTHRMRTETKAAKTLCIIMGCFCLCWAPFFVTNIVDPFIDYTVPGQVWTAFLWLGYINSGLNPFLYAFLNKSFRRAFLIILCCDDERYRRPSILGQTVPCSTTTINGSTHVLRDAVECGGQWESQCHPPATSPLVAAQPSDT
Chain of Mitogen-activated protein kinase kinase kinase kinase 2 (Homo sapiens) (Q12851 whole entry): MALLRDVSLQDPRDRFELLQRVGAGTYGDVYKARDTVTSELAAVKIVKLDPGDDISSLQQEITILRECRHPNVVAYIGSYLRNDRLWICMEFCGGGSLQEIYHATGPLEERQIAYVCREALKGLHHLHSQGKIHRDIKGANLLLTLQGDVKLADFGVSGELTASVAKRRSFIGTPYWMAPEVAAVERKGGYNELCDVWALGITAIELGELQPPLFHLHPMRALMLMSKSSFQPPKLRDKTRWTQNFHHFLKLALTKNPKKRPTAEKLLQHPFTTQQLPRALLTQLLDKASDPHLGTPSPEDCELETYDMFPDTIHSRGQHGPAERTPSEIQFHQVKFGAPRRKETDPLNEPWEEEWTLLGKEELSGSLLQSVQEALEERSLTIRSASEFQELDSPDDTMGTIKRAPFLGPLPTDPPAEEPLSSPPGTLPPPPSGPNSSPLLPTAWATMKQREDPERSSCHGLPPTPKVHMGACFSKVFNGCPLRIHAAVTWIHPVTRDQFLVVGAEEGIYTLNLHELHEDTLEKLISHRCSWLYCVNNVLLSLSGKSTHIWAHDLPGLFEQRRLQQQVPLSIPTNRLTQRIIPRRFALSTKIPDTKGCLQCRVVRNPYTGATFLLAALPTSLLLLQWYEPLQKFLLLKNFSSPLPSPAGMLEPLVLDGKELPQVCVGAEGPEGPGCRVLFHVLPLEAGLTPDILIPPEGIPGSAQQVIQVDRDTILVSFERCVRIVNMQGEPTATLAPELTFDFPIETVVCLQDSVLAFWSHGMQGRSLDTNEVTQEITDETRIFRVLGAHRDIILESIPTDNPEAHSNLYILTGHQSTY

CCCOc1ccc([C@H]2[C@H](C(=O)O)[C@@H](c3ccc4c(c3)OCO4)CN2CC(=O)Nc2c(CC)cccc2CC)cc1 [A-192621]
residual activity [1]: 80% | residual activity [2]: 100% | residual activity [3]: 87% | residual activity [4]: 92% | residual activity [5]: 100% | residual activity [6]: 78% | residual activity [7]: 100% | residual activity [8]: 100% | residual activity [9]: 82% | residual activity [10]: 90% | residual activity [11]: 69% | residual activity [12]: 100% | residual activity [13]: 77% | % Inhibition of Control Specific Binding (Mean n=2) [14]: 94.7% | residual activity [15]: 97% | residual activity [16]: 89% | residual activity [17]: 61% | residual activity [18]: 85% | residual activity [19]: 82% | residual activity [20]: 79% | residual activity [21]: 95% | residual activity [22]: 82% | residual activity [23]: 91% | residual activity [24]: 98% | residual activity [25]: 89% | residual activity [26]: 65% | residual activity [27]: 77% | residual activity [28]: 100% | residual activity [29]: 76% | % Inhibition of Control Specific Binding (Mean n=2) [30]: -12.4% | residual activity [31]: 100% | residual activity [32]: 68% | residual activity [33]: 97% | residual activity [34]: 74% | % Inhibition of Control Specific Binding (Mean n=2) [35]: 15.4% | residual activity [36]: 82% | residual activity [37]: 78% | residual activity [38]: 100% | residual activity [39]: 82% | residual activity [40]: 92% | residual activity [41]: 99% | residual activity [42]: 70% | residual activity [43]: 86% | residual activity [44]: 93%

CCCOc1ccc([C@@H]2[C@@H](C(=O)O)[C@H](c3ccc4c(c3)OCO4)CN2CC(=O)Nc2c(CC)cccc2CC)cc1 [A-1806262]
residual activity [1]: 96% | residual activity [2]: 96% | residual activity [3]: 100% | residual activity [4]: 100% | residual activity [5]: 100% | residual activity [6]: 81% | residual activity [7]: 84% | residual activity [8]: 100% | residual activity [9]: 93% | residual activity [10]: 100% | residual activity [11]: 100% | residual activity [12]: 100% | residual activity [13]: 94% | % Inhibition of Control Specific Binding (Mean n=2) [14]: 96.7% | residual activity [15]: 100% | residual activity [16]: 100% | residual activity [17]: 68% | residual activity [18]: 90% | residual activity [19]: 90% | residual activity [20]: 98% | residual activity [21]: 90% | residual activity [22]: 96% | residual activity [23]: 100% | residual activity [24]: 92% | residual activity [25]: 98% | residual activity [26]: 73% | residual activity [27]: 100% | residual activity [28]: 100% | residual activity [29]: 96% | % Inhibition of Control Specific Binding (Mean n=2) [30]: -13.4% | residual activity [31]: 100% | residual activity [32]: 83% | residual activity [33]: 100% | residual activity [34]: 87% | % Inhibition of Control Specific Binding (Mean n=2) [35]: -1.6% | residual activity [36]: 100% | residual activity [37]: 80% | residual activity [38]: 94% | residual activity [39]: 97% | residual activity [40]: 98% | residual activity [41]: 97% | residual activity [42]: 65% | residual activity [43]: 74% | residual activity [44]: 100%
